Laboratory results as given in patent publication US20250197406A1, “INDAZOLES AS HEMATOPOIETIC PROGENITOR KINASE 1 (HPK1) INHIBITORS AND METHODS FOR USING SAME” (1ST Biotherapeutics, Inc., priority 2022, published 2025).
pIC50: −log10 of the molar value. Structures can show the parent of a compound that is named as a salt.

target: recombinant human HPK1 (Homo sapiens (Human), UniProt Q92918); experiment: HPK1 kinase assay (Promega ADP-Glo kinase assay); type: biochemical; conditions: In vitro activity against HPK1, 5 ng HPK1, MBP substrate, ATP 25 μM, 30° C. 40 minutes
Method in brief: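 IC50 was derived from percent inhibition across a range of compound concentrations. Recombinant human HPK1 (5 ng) phosphorylated MBP for 40 min at 30 °C in Tris buffer pH 7.5 with 20 mM MgCl2, with ATP added as a 25 µM solution and 0.5% DMSO. ADP formed was read by ADP-Glo luminescence.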

recombinant human HPK1, sequence (Q92918 whole entry): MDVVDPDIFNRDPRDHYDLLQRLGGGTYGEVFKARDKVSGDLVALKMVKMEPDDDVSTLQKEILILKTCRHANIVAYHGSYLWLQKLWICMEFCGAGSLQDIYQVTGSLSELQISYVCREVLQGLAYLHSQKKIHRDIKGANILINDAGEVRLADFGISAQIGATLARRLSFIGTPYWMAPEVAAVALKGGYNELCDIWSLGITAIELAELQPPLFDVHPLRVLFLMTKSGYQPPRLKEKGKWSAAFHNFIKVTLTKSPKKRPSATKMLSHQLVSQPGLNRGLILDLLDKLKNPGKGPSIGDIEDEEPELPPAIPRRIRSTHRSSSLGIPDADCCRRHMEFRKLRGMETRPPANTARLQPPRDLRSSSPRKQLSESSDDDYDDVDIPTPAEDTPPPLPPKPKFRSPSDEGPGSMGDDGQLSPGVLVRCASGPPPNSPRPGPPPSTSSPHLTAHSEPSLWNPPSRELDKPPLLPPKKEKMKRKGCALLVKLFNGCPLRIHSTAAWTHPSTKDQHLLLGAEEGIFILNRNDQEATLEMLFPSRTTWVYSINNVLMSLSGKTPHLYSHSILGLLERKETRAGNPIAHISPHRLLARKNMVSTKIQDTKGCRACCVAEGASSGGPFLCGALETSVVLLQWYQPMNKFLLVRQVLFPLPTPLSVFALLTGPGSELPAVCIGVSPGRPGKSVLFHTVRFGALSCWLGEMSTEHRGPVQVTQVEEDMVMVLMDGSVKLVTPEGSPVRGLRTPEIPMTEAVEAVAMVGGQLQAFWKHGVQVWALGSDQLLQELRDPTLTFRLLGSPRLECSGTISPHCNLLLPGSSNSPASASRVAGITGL

SMILES | pIC50
O=C(Nc1cn2cc(-c3c(C(F)F)c(F)c(C(O)C4CC4)c4[nH]ncc34)ncc2n1)[C@@H]1C[C@@H]1F (stereo partly drawn) [Example 19, (1S,2S)-N-(6-(7-(cyclopropyl(hydroxy)methyl)-5-(difluoromethyl)-6-fluoro-1H-indazol-4-yl)imidazo[1,2-a]pyrazin-2-yl)-2-fluorocyclopropane-1-carboxamide] | > 7.00
COC(=O)NC1(C(=O)Nc2cn3cc(-c4c(Cl)c(F)c(NC(C)C)c5[nH]ncc45)ncc3n2)CC1 [Example 47, methyl (1-((6-(5-chloro-6-fluoro-7-(isopropylamino)-1H-indazol-4-yl)imidazo[1,2-a]pyrazin-2-yl)carbamoyl)cyclopropyl)carbamate] | 6.00 to 6.30
CC(=O)NCC(C)c1c(F)c(C(F)(F)F)c(-c2cn3cc(NC(=O)[C@@H]4C[C@@H]4F)nc3cn2)c2cn[nH]c12 (stereo partly drawn) [Example 99, (1S,2S)-N-(6-(7-(1-acetamidopropan-2-yl)-6-fluoro-5-(trifluoromethyl)-1H-indazol-4-yl)imidazo[1,2-a]pyrazin-2-yl)-2-fluorocyclopropane-1-carboxamide] | > 7.00
CC(=O)Nc1cn2cc(-c3c(Cl)c(F)c(OC4CNC4)c4[nH]ncc34)ncc2n1 [Example 147, N-(6-(7-(azetidin-3-yloxy)-5-chloro-6-fluoro-1H-indazol-4-yl)imidazo[1,2-a]pyrazin-2-yl)acetamide formate] | 6.00 to 6.30
CC(C)Nc1c(F)c(C(=O)O)c(-c2cn3cc(NC(=O)[C@@H]4C[C@@H]4F)nc3cn2)c2cn[nH]c12 [Example 73, 6-fluoro-4-(2-((1S,2S)-2-fluorocyclopropane-1-carboxamido)imidazo[1,2-a]pyrazin-6-yl)-7-(isopropylamino)-1H-indazole-5-carboxylic acid] | 6.00 to 6.30
COC1CCCC1c1c(F)c(C)c(-c2cn3cc(NC(=O)[C@@H]4C[C@@H]4F)nc3cn2)c2cn[nH]c12 (stereo partly drawn) [Example 16, (1S,2S)-2-fluoro-N-(6-(6-fluoro-7-(2-methoxycyclopentyl)-5-methyl-1H-indazol-4-yl)imidazo[1,2-a]pyrazin-2-yl)cyclopropane-1-carboxamide] | > 7.00
CC(C)Nc1c(F)c(Cl)c(-c2cn3cc(NC(=O)[C@@H]4C[C@@H]4C(F)F)nc3cn2)c2cn[nH]c12 [Example 88, (1R,2S)-N-(6-(5-chloro-6-fluoro-7-(isopropylamino)-1H-indazol-4-yl)imidazo[1,2-a]pyrazin-2-yl)-2-(difluoromethyl)cyclopropane-1-carboxamide] | > 7.00
CC(=O)NC(C)c1c(F)c(C(F)F)c(-c2cn3cc(NC(=O)[C@@H]4C[C@@H]4F)nc3cn2)c2cn[nH]c12 (stereo partly drawn) [Example 53, (1S,2S)-N-(6-(7-(1-acetamidoethyl)-5-(difluoromethyl)-6-fluoro-1H-indazol-4-yl)imidazo[1,2-a]pyrazin-2-yl)-2-fluorocyclopropane-1-carboxamide] | > 7.00
CC(C)Nc1c(F)c(Cl)c(-c2cn3cc(NC(=O)[C@@H]4C[C@@H]4C#N)nc3cn2)c2cn[nH]c12 [Example 51, (1R,2S)-N-(6-(5-chloro-6-fluoro-7-(isopropylamino)-1H-indazol-4-yl)imidazo[1,2-a]pyrazin-2-yl)-2-cyanocyclopropane-1-carboxamide] | > 7.00
CC(C)Nc1c(F)c(Cl)c(-c2cn3cc(N4CCOCC4)nc3cn2)c2cn[nH]c12 [Example 91, 5-chloro-6-fluoro-N-isopropyl-4-(2-morpholinoimidazo[1,2-a]pyrazin-6-yl)-1H-indazol-7-amine] | 6.00 to 6.30
CC(=O)Nc1cn2cc(-c3c(Cl)c(F)c(CN4CC(C)(O)C4)c4[nH]ncc34)ncc2n1 [Example 157, N-(6-(5-chloro-6-fluoro-7-((3-hydroxy-3-methylazetidin-1-yl)methyl)-1H-indazol-4-yl)imidazo[1,2-a]pyrazin-2-yl)acetamide] | 6.00 to 6.30
COc1c(F)c(NC(C)C)c2[nH]ncc2c1-c1cn2cc(NC(C)=O)nc2cn1 [Example 158, N-(6-(6-fluoro-7-(isopropylamino)-5-methoxy-1H-indazol-4-yl)imidazo[1,2-a]pyrazin-2-yl)acetamide] | > 7.00
COC(=O)c1c(F)c(NC(C)C)c2[nH]ncc2c1-c1cn2cc(NC(=O)[C@@H]3C[C@@H]3F)nc2cn1 [Example 59, methyl 6-fluoro-4-(2-((1S,2S)-2-fluorocyclopropane-1-carboxamido)imidazo[1,2-a]pyrazin-6-yl)-7-(isopropylamino)-1H-indazole-5-carboxylate] | > 7.00
CC(C)Nc1c(F)c(Cl)c(-c2cn3cc(NC(=O)N4CCN(C)CC4)nc3cn2)c2cn[nH]c12 [Example 92, N-(6-(5-chloro-6-fluoro-7-(isopropylamino)-1H-indazol-4-yl)imidazo[1,2-a]pyrazin-2-yl)-4-methylpiperazine-1-carboxamide formate] | > 7.00
O=C(NC(c1c(F)c(C(F)F)c(-c2cn3cc(NC(=O)[C@@H]4C[C@@H]4F)nc3cn2)c2cn[nH]c12)C1CC1)C1CC1 (stereo partly drawn) [Example 77, (1S,2S)-N-(6-(7-(cyclopropanecarboxamido(cyclopropyl)methyl)-5-(difluoromethyl)-6-fluoro-1H-indazol-4-yl)imidazo[1,2-a]pyrazin-2-yl)-2-fluorocyclopropane-1-carboxamide] | > 7.00
Cc1c(F)c(C(NC(=O)C2CC2)C2CC2)c2[nH]ncc2c1-c1cn2cc(NC(=O)[C@@H]3C[C@@H]3F)nc2cn1 (stereo partly drawn) [Example 67, (1S,2S)-N-(6-(7-(cyclopropanecarboxamido(cyclopropyl)methyl)-6-fluoro-5-methyl-1H-indazol-4-yl)imidazo[1,2-a]pyrazin-2-yl)-2-fluorocyclopropane-1-carboxamide] | > 7.00
COCC(=O)Nc1cn2cc(-c3c(Cl)c(F)c(NC(C)C)c4[nH]ncc34)ncc2n1 [Example 109, N-(6-(5-chloro-6-fluoro-7-(isopropylamino)-1H-indazol-4-yl)imidazo[1,2-a]pyrazin-2-yl)-2-methoxyacetamide] | > 7.00
C[C@H](N[S@@+]([O-])C(C)(C)C)c1c(F)c(Cl)c(-c2cn3cc(NC(=O)[C@@H]4C[C@@H]4F)nc3cn2)c2cn[nH]c12 [Example 132, (1S,2S)-N-(6-(7-((S)-1-(((S)-tert-butylsulfinyl)amino)ethyl)-5-chloro-6-fluoro-1H-indazol-4-yl)imidazo[1,2-a]pyrazin-2-yl)-2-fluorocyclopropane-1-carboxamide] | > 7.00
Cc1c(F)c(C2CCCC2O)c2[nH]ncc2c1-c1cn2cc(NC(=O)[C@@H]3C[C@@H]3F)nc2cn1 (stereo partly drawn) [Example 9, (1S,2S)-2-fluoro-N-(6-(6-fluoro-7-(2-hydroxycyclopentyl)-5-methyl-1H-indazol-4-yl)imidazo[1,2-a]pyrazin-2-yl)cyclopropane-1-carboxamide] | > 7.00
N#Cc1c(F)cc2[nH]ncc2c1-c1cn2cc(NC(=O)[C@@H]3C[C@@H]3F)nc2cn1 [Example 72, (1S,2S)-N-(6-(5-cyano-6-fluoro-1H-indazol-4-yl)imidazo[1,2-a]pyrazin-2-yl)-2-fluorocyclopropane-1-carboxamide] | 6.00 to 6.30
CC(C)Nc1c(F)c(Cl)c(-c2cn3cc(NC(=O)Cc4cocn4)nc3cn2)c2cn[nH]c12 [Example 144, N-(6-(5-chloro-6-fluoro-7-(isopropylamino)-1H-indazol-4-yl)imidazo[1,2-a]pyrazin-2-yl)-2-(oxazol-4-yl)acetamide] | > 7.00
CC(C)Nc1c(F)c(Cl)c(-c2cn3cc(NC(=O)CN(C)C)nc3cn2)c2cn[nH]c12 [Example 103, N-(6-(5-chloro-6-fluoro-7-(isopropylamino)-1H-indazol-4-yl)imidazo[1,2-a]pyrazin-2-yl)-2-(dimethylamino)acetamide] | > 7.00
COC(=O)[C@H]1C[C@H]1C(=O)Nc1cn2cc(-c3c(Cl)c(F)c(NC(C)C)c4[nH]ncc34)ncc2n1 [Example 32, methyl (1S,2R)-2-((6-(5-chloro-6-fluoro-7-(isopropylamino)-1H-indazol-4-yl)imidazo[1,2-a]pyrazin-2-yl)carbamoyl)cyclopropane-1-carboxylate] | > 7.00
CC(C)Nc1c(F)c(C(F)(F)F)c(-c2cn3cc(NC(=O)[C@@H]4C[C@@H]4CO)nc3cn2)c2cn[nH]c12 [Example 104, (1R,2S)-N-(6-(6-fluoro-7-(isopropylamino)-5-(trifluoromethyl)-1H-indazol-4-yl)imidazo[1,2-a]pyrazin-2-yl)-2-(hydroxymethyl)cyclopropane-1-carboxamide] | > 7.00
CC(NC(=O)C1CC1)c1c(F)c(C(F)F)c(-c2cn3cc(NC(=O)[C@@H]4C[C@@H]4F)nc3cn2)c2cn[nH]c12 (stereo partly drawn) [Example 76, (1S,2S)-N-(6-(7-(1-(cyclopropanecarboxamido)ethyl)-5-(difluoromethyl)-6-fluoro-1H-indazol-4-yl)imidazo[1,2-a]pyrazin-2-yl)-2-fluorocyclopropane-1-carboxamide] | > 7.00
Cc1c(F)c(C2=CC(O)CC2)c2[nH]ncc2c1-c1cn2cc(NC(=O)[C@@H]3C[C@@H]3F)nc2cn1 (stereo partly drawn) [Example 15, (1S,2S)-2-fluoro-N-(6-(6-fluoro-7-(3-hydroxycyclopent-1-en-1-yl)-5-methyl-1H-indazol-4-yl)imidazo[1,2-a]pyrazin-2-yl)cyclopropane-1-carboxamide] | > 7.00
Cc1c(F)c(C(C)N(C)C)c2[nH]ncc2c1-c1cn2cc(NC(=O)[C@@H]3C[C@@H]3F)nc2cn1 (stereo partly drawn) [Example 12, (1S,2S)-N-(6-(7-(1-(dimethylamino)ethyl)-6-fluoro-5-methyl-1H-indazol-4-yl)imidazo[1,2-a]pyrazin-2-yl)-2-fluorocyclopropane-1-carboxamide] | 6.00 to 6.30
COC(c1c(F)c(C)c(-c2cn3cc(NC(=O)[C@@H]4C[C@@H]4F)nc3cn2)c2cn[nH]c12)C1CC1 (stereo partly drawn) [Example 2, (1S,2S)-N-(6-(7-(cyclopropyl(methoxy)methyl)-6-fluoro-5-methyl-1H-indazol-4-yl)imidazo[1,2-a]pyrazin-2-yl)-2-fluorocyclopropane-1-carboxamide] | > 7.00
